Test results published in patent publication US11680086B2, “Lipopeptide for potently inhibiting HIV, derivative thereof, pharmaceutical composition thereof and use thereof” (Institute of Pathogen Biology, Chinese Academy of Medical …, priority 2017, dated 2023).
Peptide text beside a SMILES is read from it. * marks the point of attachment. Stearoyl = CCCCCCCCCCCCCCCCCC(=O)*; Palmitoyl = CCCCCCCCCCCCCCCC(=O)*

Tests used:
[1] = test system: HXB2-mediated cell fusion (HL2/3 effector cells, TZM-b1 target cells); type: cell-based, HIV-1; conditions: HXB2-mediated cell fusion
Experimental: HIV-1 mediated cell fusion inhibition assay: the effector cells (HL2/3 cells) and target cells (TZM-b1 cells) were provided by the AIDS Reagent Program of National Institutes of Health (NIH) (catalog numbers: 1294 and 8129, respectively). The both cells were adherent cells and were cultured in a DMEM cell culture medium containing ampicillin/streptomycin double antibiotics and 10% fetal bovine serum (FBS). The TZM-b1 was first added to a 96-well cell culture plate (1×10^4 cells/well), and cultured overnight at 37° C. and 5% CO2. The test substance was diluted with the DMEM cell culture medium by 3 folds and mixed with HL2/3 effector cells (3×10^4 cells/well), then added to the TZM-b1 target cells, and further cultured for 6 hours to fully fuse. The activity of luciferase (relative fluorescence units, RLU) was then determined using a luciferase reporter gene kit from Promega company according to the instructions. The inhibition rate of each sample at each concentration was calculated, and the half effective inhibitory concentration (IC50 value) was calculated using GraphPad Prism Software 2.01.

Figure 9 = experiment: Figure 9
Description: Table printed on a drawing sheet, Figure 9
First reader's note: Panel B of Figure 9; each value cell holds the value ± its error, and each column is one route of administration.

SHIV strain SF162P3 = experiment: therapeutic effect in monkey infection model; type: in vivo, Chinese rhesus monkeys
Experimental: Six adult Chinese rhesus monkeys (numbered A to F, half male and half female) were used in the test, and antibodies to SIV, herpesvirus B, and simian T-lymphotropic virus were determined to be negative. The SHIV strain SF162P3 was provided by the AIDS Reagent Program of NIH in the United States, and was amplified on peripheral blood mononuclear cells (PBMC) of the monkeys, and the TCID50 was determined. Monkeys were intravenously inoculated with 1,000 TCID50 of the SF162P3 virus, and changes in plasma viral load (RNA copy number/ml) in the monkeys were measured periodically. […] The plasma samples were isolated from monkey bloods collected at predetermined time points and the plasma viral load (RNA copy number/ml) was determined by quantitative real-time reverse transcription-polymerase chain reaction (qRT-PCR). The plasma RNA was extracted by a conventional method and cDNA samples were synthesized by reverse transcription reaction. […] The PCR device used was PE AB17500. The sensitivity of the assay was 100 RNA copies per milliliter of plasma sample.

Compound	inhibitory activity further improved, folds ([1]; relative to LP-50)	inhibitory activity as folds of that of T-20 ([1]; relative to T-20)	Fabs | % (Figure 9)	monkeys with viral load decreased below the detectable level line (SHIV strain SF162P3; 2 mg/kg s.c. once a day, fourth day after the treatment, six monkeys)	rebound of virus (SHIV strain SF162P3; 4th day after administration was stopped)	rebound of virus (SHIV strain SF162P3; 10th day after administration was stopped)	monkeys with viral load not detected (SHIV strain SF162P3; 14th day after the treatment)	rebound of virus (SHIV strain SF162P3; 17th day after administration was stopped)	rebound of viral load (SHIV strain SF162P3; 24th day after administration was stopped)	therapeutic effect (in words) (SHIV strain SF162P3; SHIV SF162P3 infected rhesus monkeys)	viral load during subsequent treatment (SHIV strain SF162P3; administration once per 4 days for 4 weeks)	monkeys with viral load not detected (SHIV strain SF162P3; eighth day after the treatment)
CCCCCCCCCCCCCCCC(=O)NCCCC[C@H](NC(=O)[C@H](CCC(=O)O)NC(=O)[C@H](CC(C)C)NC(=O)[C@H](CCCCN)NC(=O)[C@H](CCCCN)NC(=O)[C@H](CC(C)C)NC(=O)[C@H](CCC(=O)O)NC(=O)[C@H](CCC(=O)O)NC(=O)[C@H](CCC(=O)O)NC(=O)[C@H](CC(N)=O)NC(=O)[C@H](CCCCN)NC(=O)[C@H](CCCCN)NC(=O)[C@H](CCC(N)=O)NC(=O)[C@H](CCC(N)=O)NC(=O)[C@H](CCC(=O)O)NC(=O)[C@H](CCC(=O)O)NC(=O)[C@H](C)NC(=O)[C@H](CCCCN)NC(=O)[C@H](CCCCN)NC(=O)[C@H](CC(C)C)NC(=O)[C@H](CC(C)C)NC(=O)[C@H](CCC(=O)O)NC(=O)[C@H](CCC(=O)O)NC(=O)[C@@H](NC(=O)[C@H](CCCCN)NC(=O)[C@H](CCC(N)=O)NC(=O)[C@H](CCC(=O)O)NC(=O)[C@H](Cc1c[nH]c2ccccc12)NC(C)=O)[C@@H](C)CC)C(N)=O [LP-52] (Ac-WEQKIEELLKKAEEQQKKNEEELKKLEK(Palmitoyl)-NH2)	about 2 folds	1859 folds										
CCCCCCCCCCCCCCCCCC(=O)NCCCC[C@H](NC(=O)[C@H](CCC(=O)O)NC(=O)[C@H](CC(C)C)NC(=O)[C@H](CCCCN)NC(=O)[C@H](CCCCN)NC(=O)[C@H](CC(C)C)NC(=O)[C@H](CCC(=O)O)NC(=O)[C@H](CCC(=O)O)NC(=O)[C@H](CCC(=O)O)NC(=O)[C@H](CC(N)=O)NC(=O)[C@H](CCCCN)NC(=O)[C@H](CCCCN)NC(=O)[C@H](CCC(N)=O)NC(=O)[C@H](CCC(N)=O)NC(=O)[C@H](CCC(=O)O)NC(=O)[C@H](CCC(=O)O)NC(=O)[C@H](C)NC(=O)[C@H](CCCCN)NC(=O)[C@H](CCCCN)NC(=O)[C@H](CC(C)C)NC(=O)[C@H](CC(C)C)NC(=O)[C@H](CCC(=O)O)NC(=O)[C@H](CCC(=O)O)NC(=O)[C@@H](NC(=O)[C@H](CCCCN)NC(=O)[C@H](CCC(N)=O)NC(=O)[C@H](CCC(=O)O)NC(=O)[C@H](Cc1c[nH]c2ccccc12)NC(C)=O)[C@@H](C)CC)C(N)=O [LP-80] (Ac-WEQKIEELLKKAEEQQKKNEEELKKLEK(Stearoyl)-NH2)			39.53%	three of the six monkeys	did not rebound	one of the monkeys (monkey A)	all six monkeys	the other 5 monkeys except the monkey C	all monkeys	powerful antiviral therapeutic effect	controlled below the detectable level line	five monkeys
